Assay [1] has as its target GABAA α2β3γ2. More on the design: method as in Christian et al 2015. Conditions: recombinant Sf9 membranes α2β3γ2; [3H]flunitrazepam; mean (SD); ref Christian et al 2015; read-out: Affinity in vitro at BZ binding site (Ki) α2; cited from earlier work.
A further assay deals with Melatonin MT1 (Homo sapiens, UniProt P48039). Nature of the assay: Secondary receptor binding profile.
Assay [2] deals with GABAA α2β3γ2. On the set-up: method as in Christian et al 2015. Conditions: 1µM test concentration, GABA EC10, % of 1 µM diazepam, mean ±SE, ref Christian et al 2015; cited from earlier work.
A further assay relates to GABAA α5β3γ2. More on the design: method as in Christian et al 2015. Conditions: 1µM test concentration, GABA EC10, % of 1 µM diazepam, mean ±SE, ref Christian et al 2015; cited from earlier work.
The next assay has as its target Melatonin MT2 (Homo sapiens, UniProt P49286). Nature of the assay: Secondary receptor binding profile.

Melatonin MT2, sequence (P49286 whole entry): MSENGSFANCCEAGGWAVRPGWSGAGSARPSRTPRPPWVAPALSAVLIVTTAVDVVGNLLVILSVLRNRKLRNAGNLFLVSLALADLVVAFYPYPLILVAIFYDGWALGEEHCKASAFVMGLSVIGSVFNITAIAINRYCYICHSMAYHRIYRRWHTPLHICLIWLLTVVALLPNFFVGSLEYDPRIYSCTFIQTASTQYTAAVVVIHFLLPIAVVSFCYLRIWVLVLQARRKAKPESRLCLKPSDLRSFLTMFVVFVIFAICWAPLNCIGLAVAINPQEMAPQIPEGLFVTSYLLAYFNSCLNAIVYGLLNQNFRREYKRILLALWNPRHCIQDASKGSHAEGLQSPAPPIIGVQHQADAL
Melatonin MT1, sequence (P48039 whole entry): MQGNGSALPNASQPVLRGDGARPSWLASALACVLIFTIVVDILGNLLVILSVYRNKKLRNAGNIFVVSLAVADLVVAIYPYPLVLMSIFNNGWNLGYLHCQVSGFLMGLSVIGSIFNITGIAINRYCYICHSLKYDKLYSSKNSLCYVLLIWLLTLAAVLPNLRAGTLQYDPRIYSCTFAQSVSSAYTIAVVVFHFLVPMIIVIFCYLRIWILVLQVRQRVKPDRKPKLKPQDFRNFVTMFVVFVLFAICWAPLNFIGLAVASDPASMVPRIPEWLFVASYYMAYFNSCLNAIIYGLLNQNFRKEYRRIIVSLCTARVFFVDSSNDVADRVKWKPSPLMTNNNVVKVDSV

Broadly, the Ki is the dissociation constant of the complex between target and ligand, obtained from inhibition or displacement. Broadly, the IC50 is the concentration that gives 50% inhibition. Turning to `CCCNC(=O)c1nnc2c(-c3cc(OC)ccc3OC)cccc2c1N` [AZD6280], the Ki on GABAA α2β3γ2 [1] was 0.021 ± 0.005 µM. In addition, the concentration for half-maximal inhibition (IC50) stood at 0.116 µM at Melatonin MT1 and 0.664 µM at Melatonin MT2. Moreover, the “Relative efficacy (%DZ) α2” value in the assay on GABAA α2β3γ2 [2] is recorded as 36±4%. Moreover, the “Relative efficacy (%DZ) α5” value in the assay on GABAA α5β3γ2 is on record as 8±2%.

Values taken from paper PMC5263201, “GABAA receptor occupancy by subtype selective GABAAα2,3 modulators: PET studies in humans” (Psychopharmacology, 2016).
